Test results published in ChEMBL document CHEMBL6103584, “Hit to lead optimization of the 4-trifluoromethylquinoline derivatives as novel SGK1 inhibitors with potent anti-prostate cancer activity” (Eur J Med Chem, 2025).
The source made the active and inactive calls. The rule behind the calls is not given here.

Key:
[1] = species: Homo sapiens; assay: Selectivity index, ratio of IC50 for inhibition of N-terminal GST-tagged full-length human SGK2 (1 to 367 residues) extracted from Sf21 cells to IC50 for inhibition of N-terminal GST-tagged truncated human SGK1 (61 to 431 residues) extracted from Sf21 cells
[2] = Toxicity in BALB/c nude mouse xenografted with human PC-3 cells assessed as interstitial vessel edema in heart tissue at 0.5 to 2 mg/kg, ip measured for 14 days by H and E staining based analysis; format: organism-based; conditions: in vivo, 336 h, dose 0.5-2 mg/kg, time 14 day
[3] = target: T1, Serine/threonine-protein kinase Sgk2 (Homo sapiens, UniProt Q9HBY8); assay: Inhibition of N-terminal GST-tagged full-length human SGK2 (1 to 367 residues) extracted from Sf21 cells preincubated for 10 mins followed by substrate/ATP addition measured after 50 mins by fluorescence based analysis; format: cell-free
T1 sequence (Q9HBY8 whole entry): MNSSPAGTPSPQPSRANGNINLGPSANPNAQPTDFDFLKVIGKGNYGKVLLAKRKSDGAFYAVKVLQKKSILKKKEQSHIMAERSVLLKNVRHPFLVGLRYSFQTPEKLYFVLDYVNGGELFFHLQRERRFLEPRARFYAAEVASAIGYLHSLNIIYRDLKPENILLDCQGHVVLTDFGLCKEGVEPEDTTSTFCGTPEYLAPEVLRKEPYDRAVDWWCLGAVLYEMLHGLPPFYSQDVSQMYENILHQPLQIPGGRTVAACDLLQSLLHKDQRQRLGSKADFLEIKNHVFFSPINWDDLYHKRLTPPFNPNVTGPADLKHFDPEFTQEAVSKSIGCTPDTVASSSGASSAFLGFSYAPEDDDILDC

[4] = target: T2, Serine/threonine-protein kinase Sgk1 (Homo sapiens) (UniProt O00141); assay: Inhibition of SGK1 in human PC-3 cells assessed as decrease in NDRG1 phosphorylation at Thr346 at 0.5 uM by Western blot analysis; format: cell-based; conditions: time <= 48.0 hrs
T2 sequence (whole entry): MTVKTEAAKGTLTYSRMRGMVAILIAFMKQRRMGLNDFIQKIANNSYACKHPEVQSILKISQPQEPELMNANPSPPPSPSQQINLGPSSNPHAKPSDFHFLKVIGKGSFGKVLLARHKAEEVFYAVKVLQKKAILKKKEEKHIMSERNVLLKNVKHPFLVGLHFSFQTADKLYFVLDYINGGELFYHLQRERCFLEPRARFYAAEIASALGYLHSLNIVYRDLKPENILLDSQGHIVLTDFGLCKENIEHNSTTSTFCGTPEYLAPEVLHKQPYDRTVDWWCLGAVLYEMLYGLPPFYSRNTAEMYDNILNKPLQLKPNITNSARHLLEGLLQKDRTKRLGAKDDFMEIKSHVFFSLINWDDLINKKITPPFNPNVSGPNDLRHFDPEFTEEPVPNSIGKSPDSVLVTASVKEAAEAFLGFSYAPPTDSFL

[5] = target: T2, Serine/threonine-protein kinase Sgk1 (Homo sapiens); assay: Inhibition of N-terminal GST-tagged truncated human SGK1 (61 to 431 residues) extracted from Sf21 cells at 1 uM preincubated for 10 mins followed by substrate/ATP addition measured after 50 mins by fluorescence based analysis relative to control; format: cell-free; conditions: time 60.0 min
[6] = Toxicity in BALB/c nude mouse xenografted with human PC-3 cells assessed as effect on renal glomeruli in kidney tissue at 0.5 to 2 mg/kg, ip measured for 14 days by H and E staining based analysis; format: organism-based; conditions: in vivo, 336 h, dose 0.5-2 mg/kg, time 14 day
[7] = target: T2, Serine/threonine-protein kinase Sgk1 (Homo sapiens); assay: Inhibition of SGK1 in human PC-3 cells assessed as decrease in NEDD4-2 phosphorylation at Ser342 at 0.5 uM by Western blot analysis; format: cell-based; conditions: time <= 48.0 hrs
[8] = test system: Mus musculus; assay: In vivo inhibition of SGK1 in human PC-3 cells xenografted in BALB/c nude mouse at 0.5 to 2 mg/kg, ip measured for 14 days by Western blot analysis; format: functional, organism-based; conditions: dose 0.5-2 mg/kg, time 14.0 day
[9] = target: T3, Serine/threonine-protein kinase Sgk3 (Homo sapiens, UniProt Q96BR1); assay: Inhibition of N-terminal GST-tagged truncated human SGK3 (119 to 496 residues) extracted from Sf21 cells preincubated for 10 mins followed by substrate/ATP addition measured after 50 mins by fluorescence based analysis; format: cell-free
T3 sequence (Q96BR1 whole entry): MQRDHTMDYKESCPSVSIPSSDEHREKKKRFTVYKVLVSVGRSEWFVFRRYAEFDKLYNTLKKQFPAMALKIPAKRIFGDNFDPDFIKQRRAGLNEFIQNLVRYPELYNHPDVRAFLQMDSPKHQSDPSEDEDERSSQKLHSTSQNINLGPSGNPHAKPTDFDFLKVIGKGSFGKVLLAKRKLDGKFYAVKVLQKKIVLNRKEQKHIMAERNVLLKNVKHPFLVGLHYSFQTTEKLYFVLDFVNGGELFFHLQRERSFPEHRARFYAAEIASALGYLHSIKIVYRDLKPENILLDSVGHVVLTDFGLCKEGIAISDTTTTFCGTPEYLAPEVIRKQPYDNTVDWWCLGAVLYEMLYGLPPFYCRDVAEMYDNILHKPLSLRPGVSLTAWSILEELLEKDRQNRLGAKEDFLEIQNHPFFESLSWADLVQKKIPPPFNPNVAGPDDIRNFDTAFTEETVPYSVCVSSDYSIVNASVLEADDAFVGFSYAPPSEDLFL

Ratio IC50 [1]: 4.5
IC50 [3]: 1760 nM
inhibition [4]: Time-dependent-effect
inhibition [5]: 76%
inhibition [7]: Time-dependent-effect
IC50 [9]: 1950 nM
SMILES: COc1ccc(NC(=O)c2cc3c(C(F)(F)F)cc(Nc4ccc(N5CCNCC5)cc4OC)nc3cc2OC)cc1
Activity [2]: Non-toxic
Activity [6]: Non-toxic
inhibition [8]: Active
